The numbers were not newly measured in patent publication US6974895B1, “Transgenic legume plants modified to produce resveratrol glucoside and uses thereof” (The Samuel Roberts Noble Foundation, Inc., priority 1999, dated 2005), which cites them from elsewhere.

Molecules are shown by their SMILES.

For this data set, the system named is aberrant colon crypt formation. Particulars: azoxymethane treated rat model (Steele, et al. 1998).

Consider `Oc1ccc(C=Cc2cc(O)cc(O)c2)cc1` [resveratrol, 3,5,4′-trihydroxystilbene], for which the “inhibition of aberrant colon crypt formation” value is given as “significant inhibition”.
